Columns and labels:
Assay type in all cases: in vivo
[1] = test system: barnyardgrass (Ec); assay: Test Example 3: herbicidal effects by upland field foliage treatment; design: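 grade of growth control; 5 = at least 90%; 4 = 70 to 90%; 3 = 50 to 70%; 2 = 30 to 50%; 1 = 10 to 30%; 0 = under 10%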; details: 100 g active ingredient per 10 ares, evaluated 14th day after treatment
In short: (§1)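 Greenhouse test, upland conditions: seeds sown in sand pots of 120 cm^2 area and overlaid with soil; 2 weeks growth; leaves treated; herbicidal injury graded on day 14 after treatment by fixed standards.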

[2] = test system: rice flatsedge (Ci); assay: as above; design: scale not given here; details: 100 g active ingredient per 10 ares, evaluated 14th day after treatment
In short: as §1

[3] = test system: slender amaranth (Am); assay: as above; design: scale not given here; details: 100 g active ingredient per 10 ares, evaluated 14th day after treatment
In short: as §1

[4] = test system: pale smartweed (Po); assay: as above; design: scale not given here; details: 100 g active ingredient per 10 ares, evaluated 14th day after treatment
In short: as §1

[5] = test system: Diaitaria ciliaris (Di); assay: as above; design: scale not given here; details: 100 g active ingredient per 10 ares, evaluated 14th day after treatment
In short: as §1

[6] = test system: common lambsquarters (Ch); assay: as above; design: scale not given here; details: 100 g active ingredient per 10 ares, evaluated 14th day after treatment
In short: as §1

[7] = test system: slender amaranth (Am); assay: Test Example 2: herbicidal effects by upland field soil treatment; details: 100 g of the active ingredient per 10 ares, evaluated on the 21st day after application;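 note: grade of growth control; 5 = at least 90%; 4 = 70 to 90%; 3 = 50 to 70%; 2 = 30 to 50%; 1 = 10 to 30%; 0 = under 10%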
Source text: (§2) (Test on Herbicidal Effects by Upland Field Soil Treatment)

[8] = test system: Digitaria ciliaris (Di); assay: as above; details: 100 g of the active ingredient per 10 ares, evaluated on the 21st day after application;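 note: grade of growth control; 5 = at least 90%; 4 = 70 to 90%; 3 = 50 to 70%; 2 = 30 to 50%; 1 = 10 to 30%; 0 = under 10%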
Source text: as §2

[9] = test system: slender amaranth (Am); assay: Test Example 6: crop plant selectivity by upland field soil treatment (soybean), herbicidal effects; design: scale not given here; details: 21st day after application
In short: (§3)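 Soybean and weeds sown in sand-filled pots and covered with soil, then treated by soil application. Plants grown in a greenhouse, with herbicidal effect and crop phytotoxicity scored on day 21 after application against a fixed rating scale.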

[10] = test system: pale smartweed (Po); assay: as above; design: scale not given here; details: 21st day after application
In short: as §3

Row | Structure (SMILES) | Herbicidal effects Ec [1] | Herbicidal effects Ci [2] | Herbicidal effects Am [3] | Herbicidal effects Po [4] | Herbicidal effects Di [5] | Herbicidal effects Ch [6] | Herbicidal effects Am [7] | Herbicidal effects Di [8] | Herbicidal effects Am ([9]; dose 1.6 g ai/10a) | Herbicidal effects Am ([9]; dose 6.3 g ai/10a) | Herbicidal effects Po ([10]; dose 1.6 g ai/10a) | Herbicidal effects Po ([10]; dose 6.3 g ai/10a)
1 | C#CCN1C(=O)COc2cc(F)c(-c3ccc(C(F)(F)F)n(C)c3=O)cc21 [Compound No. 2-1, 3-[7-fluoro-2,3-dihydro-4-(2-propynyl)-1,4-benzoxazin-3-on-6-yl]-1-methyl-6-trifluoromethyl-2(1H)-pyridone] | 5 | 5 | 5 | 5 | 5 | 5 | 5 | 5 | 5 | 5 | 5 | 5
2 | C#CCn1c(=O)sc2cc(F)c(-c3ccc(C(F)(F)F)n(C)c3=O)cc21 [Compound No. 3-1, 3-[6-fluoro-3-(2-propynyl)-benzothiazolin-2-on-5-yl]-1-methyl-6-trifluoromethyl-2(1H)-pyridone] | 5 | 5 | 5 | 5 | 5 | 5 | 5 | 5 | – | 5 | – | 5
3 | COCc1cc2c(-c3ccc(C(F)(F)F)n(C)c3=O)c(F)cc(Cl)c2o1 [Compound No. 4-4, 3-(7-chloro-5-fluoro-2-methoxymethylbenzofuran-4-yl)-1-methyl-6-trifluoromethyl-2-(1H)-pyridone] | 5 | 5 | 5 | 5 | 5 | 5 | 5 | 5 | – | 5 | – | 5
4 | Cn1c(C(F)(F)F)ccc(-c2c(F)cc(Cl)c3oc(CO)cc23)c1=O [Compound No. 4-5, 3-(7-chloro-5-fluoro-2-hydroxymethylbenzofuran-4-yl)-1-methyl-6-trifluoromethyl-2-(1H)-pyridone] | 5 | 5 | 5 | 5 | 5 | 5 | 5 | 5 | – | 5 | – | 5
5 | Cn1c(C(F)(F)F)ccc(-c2c(F)cc(Cl)c3occc23)c1=O [Compound No. 4-28, 3-(7-chloro-5-fluorobenzofuran-4-yl)-1-methyl-6-trifluoromethyl-2-(1H)-pyridone] | 4 | 5 | 5 | 5 | 5 | 5 | 5 | 5 | 5 | – | 5 | –
6 | Cn1cc(-c2cc(Oc3ccccc3)c(Cl)cc2F)c(=O)cc1C(F)(F)F [Compound No. 6-19, 5-(4-chloro-2-fluoro-5-phenoxyphenyl)-1-methyl-2-trifluoromethyl-4(1H)-pyridone] | 5 | 5 | 5 | 5 | 5 | 5 | 5 | 5 | 5 | 5 | 5 | 5
